Experimental data: patent publication US20120245078A1, “MEANS AND METHODS FOR TREATING ISCHEMIC CONDITIONS” (priority 2009, published 2012)

How the values were obtained:
[1] = system: focal cerebral ischemia (tMCAO); conditions: mice, 24 h after 60 min tMCAO; same doses; untreated control 48.3±16.7 or 56.6±10.0
Description: The intraluminal suture was left in situ for 60 minutes. Then animals were re-anesthetized and the occluding monofilament was withdrawn to allow reperfusion. […] Control mice (n=10) received 0.9% NaCl solution.
Control mice (n=10) received 0.9% NaCl solution.

[2] = system: traumatic brain injury (CCI); assay: Controlled cortical impact (CCI) traumatic brain injury model; format: in vivo, mouse; conditions: mice, 24 h after CCI; given 30 min after CCI; bortezomib 0.2 mg/kg, dexamethasone 10 mg/kg; scale 0 to 10
Description: As is known in the art, the neurological severity score is a measure of neurological impairment and is quantified on a scale from 0 (no impairment) to 10 (maximum impairment). When determining the neurological severity score, primarily the motoric activity is assessed (walking on a bar, false steps, search or foraging, respectively, behaviour and the like).

occludin protein = assay: Western blot and densitometry, occludin protein in cEND cells; format: cell-based, mouse; conditions: for occludin protein, of control: GR-K426A-transfected cEND cells, after O2/glucose deprivation
Description: (C)-(D) The influence of O2/glucose-deprivation on the tight junction proteins occludin and claudin-5 could be shown by Western Blot: for this, cells were seeded on plastic cell culture flasks coated with collagen IV, treated as indicated and subjected to SDS-gel electrophoresis and Western blotting. A four-hour exposure to O2/glucose-deprivation caused a significant (P<0.05) decrease in occludin protein to 82±3% as compared to the untreated control. […]. Comparably, O2/glucose-deprivation caused a significant (P<0.001) decrease in claudin-5 protein to 61±4% as compared to the untreated control. […]. (C) Effects of proteasomal inhibition on occludin protein levels were examined by western blot analysis and densitometric analysis.

claudin-5 protein = assay: Western blot and densitometry, claudin-5 protein in cEND cells; format: cell-based, mouse; conditions: GR-K426A-transfected cEND cells, O2/glucose deprivation, presence of dexamethasone (K426A O2/glu depr+dex)
Description: (C)-(D) The influence of O2/glucose-deprivation on the tight junction proteins occludin and claudin-5 could be shown by Western Blot: for this, cells were seeded on plastic cell culture flasks coated with collagen IV, treated as indicated and subjected to SDS-gel electrophoresis and Western blotting. A four-hour exposure to O2/glucose-deprivation caused a significant (P<0.05) decrease in occludin protein to 82±3% as compared to the untreated control. […]. Comparably, O2/glucose-deprivation caused a significant (P<0.001) decrease in claudin-5 protein to 61±4% as compared to the untreated control. […].

GR protein = assay: Western blot and densitometry, GR protein levels in cEND cells; format: cell-based, mouse; conditions: normoxia, 100 nM dexamethasone 24 h (normox+dex)
Description: (A) GR protein levels after O2/glucose-deprivation.
(§1) Electrophoresis and immunoblotting, quantitative real-time RT-PCR, transendothelial electrical resistance measurements, transfection and luciferase assay were performed following standard procedures.

VE-cadherin = assay: Real time RT-PCR, VE-cadherin gene expression in cEND cells; format: cell-based, mouse; conditions: introduction of GR-K426A
Description: (§2) Normox control (black bars), normox+dex (white bars), O2/glu depr (light grey bars), O2/glu depr+dex (dark grey bars).
as §1
(§3) At first, expression levels of genes encoding the tight junction proteins occludin, claudins-3, -5, -12 and the adherens junction protein, VE-cadherin, were assessed by real time RT-PCR (FIG. 2B).

cEND monolayers = assay: Transendothelial electrical resistance (TER) of cEND monolayers, normoxia or O2/glucose deprivation; format: cell-based, mouse; conditions: GR-K426A-transfected cEND cells, after O2/glucose deprivation, without dexamethasone (K426A O2/glu depr)
Description: Growth medium (10% FCS) was changed after 5 days in culture to differentiation medium ([…], ±additions) and analysis of the TER was performed after O2/glucose-deprivation as indicated. […] Hek293 cells were maintained in DMEM, 10% FCS. […] We performed cell viability assays following standard procedures.
as §1

claudin-5 = assay: Real time RT-PCR, claudin-5 gene expression in cEND cells; format: cell-based, mouse; conditions: introduction of GR-K426A
Description: as §2, §1, §3

Molecule: CC(C)C[C@@H](NC(=O)[C@@H](Cc1ccccc1)NC(=O)c1cnccn1)B(O)O [bortezomib, [(1S)-3-methyl-1-[[(2R)-3-phenyl-2-(pyrazine-2-carbonylamino)propanoyl]amino]butyl]boronic acid]
- volume of Evan's blue extravasation (edema volume) [1]: no influence
- neurological severity score [2]: does not lead to any statistically significant improvement

Molecule: C[C@@H]1C[C@H]2[C@@H]3CCC4=CC(=O)C=C[C@]4(C)[C@@]3(F)[C@@H](O)C[C@]2(C)[C@@]1(O)C(=O)CO [dexamethasone]
- occludin protein, of control (occludin protein; dexamethasone (K426A O2/glu depr+dex)): 122±5%
- occludin protein content, of control (occludin protein; normoxia, dexamethasone): 120±7%
- claudin-5 protein level (claudin-5 protein): 44±11%
- GR protein, of untreated cells (GR protein): 66±2%

B1: GR-K426A: mutant murine glucocorticoid receptor, point mutation at lysine-426, resistant to proteasomal degradation, transfected into cEND cells (SEQ ID NOs: 3 and 4) (protein)
chain: MDSKESLAPPGRDEVPSSLLGRGRGSVMDLYKTLRGGATVKVSASSPSVAAASQADSKQQRILLDFSKGSASNAQQQQQQQQPQPDLSKAVSLSMGLYMGETETKVMGNDLGYPQQGQLGLSSGETDFRLLEESIANLNRSTSRPENPKSSTPAAGCATPTEKEFPQTHSDPSSEQQNRKSQPGTNGGSVKLYTTDQSTFDILQDLEFSAGSPGKETNESPWRSDLLIDENLLSPLAGEDDPFLLEGDVNEDCKPLILPDTKPKIQDTGDTILSSPSSVALPQVKTEKDDFIELCTPGVIKQEKLGPVYCQASFSGTNIIGNKMSAISVHGVSTSGGQMYHYDMNTASLSQQQDQKPVFNVIPPIPVGSENWNRCQGSGEDNLTSLGAMNFAGRSVFSNGYSSPGMRPDVSSPPSSSSTATGPPPALCLVCSDEASVCHYGVLTCGSCKVFFKRAVEGQHNYLCAGRNDCIIDKIRRKNCPACRYRKCLQAGMNLEARKTKKKIKGIQQATAGVSQDTSENANKTIVPAALPQLTPTLVSLLEVIEPEVLYAGYDSSVPDSAWRIMTTLNMLGGRQVIAAVKWAKAIPGFRNLHLDDQMTLLQYSWMFLMAFALGWRSYRQASGNLLCFAPDLIINEQRMTLPCMYDQCKHMLFISTELQRLQVSYEEYLCMKTLLLLSSVPKEGLKSQELFDEIRMTYIKELGKAIVKREGNSSQNWQRFYQLTKLLDSMHDVVENLLSYCFQTFLDKSMSIEFPEMLAEIITNQIPKYSNGNIKKLLFHQK
modifications: expressed in transfected cEND cells; mus musculus
- occludin protein, of control (occludin protein; without dexamethasone (K426A O2/glu depr)): 58±7%
- VE-cadherin gene expression level (VE-cadherin): not influenced
- TER (cEND monolayers): 239+58 Ωcm^2
- claudin-5 gene expression level (claudin-5): not influenced
